Data reported in patent US8394596B1 (priority 2012, dated 2013).
Where two headings read alike, the source gives them in different places.

How the values were obtained:
Format in all cases: binding
[1] = tested on: rabbit anti-BMAA antibody
[2] = tested on: rabbit anti-BMAA antibody; test: Competitive ELISA for BMAA, second estimate of sensitivity with later-harvested antibody (Example 8); details: antibody harvested after the 6th boost
Protocol: (§1) The ELISA method: • 1. Add either 100 μL of either a BMAA solution (0, 10, 25, 50, 100, 250, 500, 1000 ng/mL of BMAA) as a calibrator/standard solutions or 100 μL of a test sample into the wells of the test strips (coated with anti-rabbit IgG). Analysis in duplicate or triplicate is recommended. • 2. Add 50 μL of enzyme conjugate solution (BMAA-HRP) to the individual wells successively using a multi-channel pipette or a stepping pipette. • 3. Add 50 μL of antibody solution (rabbit anti-BMAA; for example one made by diluting by a factor of 8000 antiserum from a rabbit immunized according to Example 3 using BMAA-BSA as the immunogen) to the individual wells successively using a multi-channel pipette or a stepping pipette. Cover the wells with parafilm or tape and mix the contents by moving the strip holder in a circular motion on the benchtop for 30 seconds. Be careful not to spill the contents. The foregoing creates a total assay volume of 200 μL. • 4. Incubate the strips for 90 minutes at room temperature. • 5. Remove the covering and decant the contents of the wells into a sink. Wash the strips four times using the diluted washing buffer solution (1×PBS with 0.1% Tween), using at least a volume of 250 μL of washing buffer for each well in each washing step. Remaining buffer in the wells should be removed by patting the inverted plate dry on a stack of paper towels. • 6. Add 150 μL of substrate (color) solution ((TMB), BioFX cat #TMBW-1000 from Surmodics), to the wells. Cover the wells with parafilm or tape and mix the contents by moving the strip holder in a circular motion on the benchtop for 30 seconds. Be careful not to spill the contents. Incubate the strips for 30 minutes at room temperature. Protect the strips from direct sunlight. • 7. Add 100 μL of stop solution (2N HCl) to the wells in the same sequence as for the substrate solution. • 8. Read the absorbance at 450 nm using a microplate ELISA photometer within 15 minutes after the addition of stopping solution using a computer interfaced ELISA reader (Molecular Devices, Sunnyvale, Calif.). BMAA concentration in the unknown samples was estimated by comparison with a concurrently-run standard curve.
The procedure of Example 6 was followed except that (1) the BMAA concentrations tested were 5, 10, 25, 100, 250 and 500 ppb (corresponding to 5, 10, 25, 100, 250 and 500 ng/ml) and (2) an antibody preparation harvested later than that used for Example 6 was used. The antibodies harvested for this example were harvested after the 6th boost.
The sensitivity of the assay was estimated to be 2.5 ppb.

[3] = tested on: rabbit anti-BMAA antibody; test: Competitive ELISA for BMAA on anti-rabbit IgG coated plates, estimate of sensitivity (Example 6); details: antibody harvested after fourth booster
Protocol: Rabbits were immunized with 0.5-1.0 mg of immunizing conjugate per rabbit per injection. The immunizing conjugate was emulsified with Complete Freund's Adjuvant for primary injections and with Incomplete Freund's Adjuvant for booster injections. Three or four booster injections were performed at monthly intervals to raise the desired titers. The rabbits were bled on 12±3 days following each booster injection. Antisera were monitored for titer and analyte specificity by capturing the relevant antibodies on ELISA plates coated with anti-rabbit IgG. The captured antibodies were measured in a subsequent step by incubating the plates with a BMAA-horseradish peroxidase (BMAA-HRP).
Three rabbits were immunized with an immunogen in which EDC was used to link BMAA to BSA according to Example 1. Three rabbits were immunized with an immunogen in which DSS was used to link BMAA to BSA according to Example 2. The rabbit with the highest antibody titer when tested with sera collected 14 days after the fourth booster was a rabbit that had been immunized with an immunogen in which DSS was used to link BMAA to BSA according to Example 2. Antibodies from that rabbit, harvested 14 days after the fourth booster were used to generate the data obtained from Example 6 below. Antibodies from that rabbit, harvested 14 days after the fourth booster were used to generate the data obtained from Example 8 below.
as §1
The procedure of Example 5 was followed using known amounts of BMAA. (The antibody preparation was that specified in Example 3 as having been used for Example 6). “Concentration (ng/ml)” refers to the concentration of the BMAA in the 100 μL of calibrator/standard solution referred to in step (1) of Example 5. […]

[4] = relative to BMAA 50% inhibition at 170 ng/ml, 0.2% compounds tested up to 500 ug/mL, 0.1% up to 1 mg/ml

Structure (SMILES): N[C@@H](CC(=O)O)C(=O)O [L-Aspartic acid]
- Cross-reactivity [1]: 0.2%

Structure (SMILES): N[C@@H](CCC(=O)O)C(=O)O [L-Glutamic acid]
- Cross-reactivity [1, 4]: 0.2%

Structure (SMILES): CNC[C@H](N)C(=O)O [BMAA, β-N-methylamino-L-alanine]
- B/Bo (%) ([2]; BMAA 5 ng/ml): 93%
- B/Bo (%) ([2]; BMAA 10 ng/ml): 88%
- B/Bo (%) ([2]; BMAA 25 ng/ml): 77%
- B/Bo (%) ([2]; BMAA 100 ng/ml): 49%
- B/Bo (%) ([2]; BMAA 250 ng/ml): 30%
- B/Bo (%) ([2]; BMAA 500 ng/ml): 19%
- sensitivity of the assay: concentration of BMAA needed to reduce B/Bo by 5 percent ([2]; Example 8): 2.5 ppb
- concentration of BMAA causing 50% inhibition in the assay ([1]; concentration in the 100 μL standard solution): 170 nanograms/ml
- Cross-reactivity [1, 4]: 100%
- B/Bo (%) ([3]; BMAA 10 ng/ml in 100 μL standard solution): 93%
- B/Bo (%) ([3]; BMAA 25 ng/ml in 100 μL standard solution): 85%
- B/Bo (%) ([3]; BMAA 50 ng/ml in 100 μL standard solution): 77%
- B/Bo (%) ([3]; BMAA 100 ng/ml in 100 μL standard solution): 64%
- B/Bo (%) ([3]; BMAA 250 ng/ml in 100 μL standard solution): 44%
- B/Bo (%) ([3]; BMAA 500 ng/ml in 100 μL standard solution): 29%
- B/Bo (%) ([3]; BMAA 1000 ng/ml in 100 μL standard solution): 18%
- sensitivity of the assay: concentration of BMAA needed to reduce B/Bo by 5 percent ([3]; Example 6): 7.5 ppb

Structure (SMILES): NCCCC(=O)O [γ-Aminobutyric acid]
- Cross-reactivity [1, 4]: 0.2%

Structure (SMILES): Cl.NCCC(N)C(=O)O (racemic) [D,L-2,4-Diaminobutyric acid hydrochloride]
- Cross-reactivity [1, 4]: 0.1%

Structure (SMILES): Cl.N[C@@H](CS)C(=O)O [L-Cysteine hydrochloride]
- Cross-reactivity [1, 4]: 0.2%
